# Measurements reported in patent publication US20250134870A1, “PATHWAY MODULATOR, PHARMACEUTICAL COMPOSITION HAVING SAME, USE THEREOF, AND THERAPEUTIC METHOD USING SAME” (Jiangsu Yahong Meditech Co., Ltd., priority 2021, published 2025).
# Experiments:
# [1] = system: dextran sulfate sodium (DSS)-induced colitis; assay: DSS-induced colitis in mice: body weight, DAI score, colon density (Examples 1, 3); format: in vivo, C57BL/6J mice
# Method: 8-10 week old female C57BL/6J mice purchased from Charles River Laboratories were used. The mice were housed in a room at constant temperature (20+2° C.) (5 mice per cage) with a 12-hour light-dark cycle. All protocols were approved by the Institutional Animal Care and Use Committee of WuXi AppTec. These mice were adapted to the housing conditions at the animal experiment center of WuXi AppTec for at least three days prior to the experiment. […] At the experimental endpoint (see hereinafter), mice were euthanized and endpoint samples were obtained. Mice in the normal group were not given 3% DSS aqueous solution to induce colitis and were free to drink blank water. […] The animal body weight and DAI score were assessed under double-blind conditions, that is, the researchers collected the body weight data of mice and observed and scored the stool characteristics and blood stools every day, without knowing the group and dosing regimen. The DAI score was the sum of the weight loss score, stool score and bleeding score. […] The data were analyzed by analysis of variance, specifically by using the following process: using Graph Pad Prism 6.0 software to carry out post-hoc Dunnett's multiple comparison test. […] Data were expressed as mean±S.E.M. The experimental endpoint was 24 hours after administration on Day 8 for the positive drug control group and the Test group 1 #to Test group 7 #of Example 1; the experimental endpoint of the normal group and the solvent group was the same as that of the positive drug control group and Test group 1 #to Test group 7 #.
# [2] = system: bleomycin-induced skin fibrosis; assay: Bleomycin-induced skin fibrosis in mice: skin histopathology (dermal thickness, capillary density score, inflammatory cell infiltration score); format: in vivo, male C57BL/6 mice
# Method: The skin tissue of the lesioned skin was subjected to dehydration, embedding and sectioning according to the pathology SOP, and the tissue was stained by HE and Masson staining. Histopathological analysis was performed according to the following methods:
# Masson-stained sections were panoramically scanned by using Nanozomer S210 and the scanned images were subjected to quantitative analysis using Visiopharm VIS6.0 software. The degree of fibrosis was currently represented by the dermal thickness after Masson staining.
# The fields of observation was selected in the dermis layer of the lesioned area (the number of fields selected was determined according to the size of the lesioned area) and scored according to the area occupied by capillaries in the area: • 0: No capillary formed • 1: The proportion of capillaries formed was less than 25%; • 2: The proportion of capillaries formed was 25-50%; • 3: The proportion of capillaries formed was 50-75%; • 4: The proportion of capillaries formed was greater than 75%. 3.8.3 Inflammatory cell infiltration score of dermis layer
# The fields of observation was selected in the dermis layer of the lesioned area (the number of fields selected was determined according to the size of the lesioned area) and scored according to the degree of inflammatory cell infiltration: • 0: No inflammatory cell infiltration: • 1: A small amount of focal inflammatory cell infiltration; • 2: Scattered diffuse inflammatory cell infiltration: • 3: A large amount of diffuse inflammatory cell infiltration; • 4: A large amount of agglomerated inflammatory cell infiltration.
# [3] = Body weight and weight change rate of EAU rats (Example 6); format: in vivo, Lewis rats
# Excerpt: Wherein, Day 0 referred to the day of immunization. The body weight of each rat was monitored twice a week after immunization.
# Dosing started from Day 0 accurately according to the animal body weight for a total of 16 days.
# [4] = system: collagen-induced arthritis (CIA); assay: Collagen-induced arthritis (CIA) in mice: body weight, clinical score, AUC, incidence (Example 9); format: in vivo, DBA/1 mice; details: 50 mg/kg PO QD, 2 weeks
# Method: DBA/1 mice were anesthetized with isoflurane and injected subcutaneously with 50 μL of prepared collagen emulsion (containing 200 μg of CII) in the tail. The day of the first immunization was recorded as Day 0, and the subsequent days were marked sequentially. On Day 21, mice were injected with a same volume of collagen emulsion in the tail.
# Dosing lasted for 14 consecutive days. Compounds were prepared every 3 days and stored at 4° C.
# Since Day 28, mice were weighed three times a week and clinical scores were recorded until the end of the experiment.
# Clinical score: scores were given according to different degrees of lesions (redness and swelling, arthrentasis) on a scale of 0-4 points, the highest score was 4 points for each limb and 16 points for each animal.
# Experimental data were represented as mean±standard error. Body weight and clinical score were analyzed by two-way ANOVA, and difference with p<0.05 was considered as significant.
# [5] = 50 and 100 mg/kg PO QD, 28 days (Test groups 2#, 3#)
compound,measurement,setting,value
NCc1c[nH]c(=S)n1[C@H]1CCc2c(F)cc(F)cc2C1 [Nepicastat],"Body weight on Day 7, g",[1]; 30 mg/kg PO QD × 8 days,19.71 g
same,"Body weight on Day 8, g",[1]; 30 mg/kg PO QD × 8 days,18.88 g
same,"Body weight on Day 8/initial body weight, %",[1]; 30 mg/kg PO QD × 8 days,90.68%
same,DAI score on Day 8,[1]; 30 mg/kg PO QD × 8 days,5.30
same,severity of DSS-induced colitis and disease activity,"[1]; Nepicastat 30, Etamicastat 100, Zamicastat 100 mg/kg PO QD × 8 days (Test groups 1#, 4#, 7#) vs solvent group",ameliorated the severity of DSS-induced colitis and reduced disease activity
same,degree of fibrosis of the lesioned skin,"[2]; 100 mg/kg PO QD, 28 days (Test group 3#)",reduce the degree of fibrosis of the lesioned skin
same,effect to reduce dermal thickness,"[2]; 25, 50 and 100 mg/kg PO QD, 28 days","dose-dependent, and the higher the dose, the more obvious the result, but there was no significant difference compared with the model group"
same,inflammatory cell infiltration of the lesioned skin,[2]; [5],significantly reduce
same,subdermal capillary hyperplasia,[2]; [5],significantly reduce
same,Rat body weight,"[3]; Day 2, 25 mg/kg PO QD",193.95 g
same,Weight change rate (%),"[3]; Day 2, 25 mg/kg PO QD",3.25%
same,Rat body weight,"[3]; Day 2, 50 mg/kg PO QD",194.04 g
same,Weight change rate (%),"[3]; Day 2, 50 mg/kg PO QD",2.53%
same,Rat body weight,"[3]; Day 2, 100 mg/kg PO QD",194.02 g
same,Weight change rate (%),"[3]; Day 2, 100 mg/kg PO QD",2.11%
same,Rat body weight,"[3]; Day 6, 25 mg/kg PO QD",204.67 g
same,Weight change rate (%),"[3]; Day 6, 25 mg/kg PO QD",7.06%
same,Rat body weight,"[3]; Day 6, 50 mg/kg PO QD",202.28 g
same,Weight change rate (%),"[3]; Day 6, 50 mg/kg PO QD",6.90%
same,Rat body weight,"[3]; Day 6, 100 mg/kg PO QD",205.97 g
same,Weight change rate (%),"[3]; Day 6, 100 mg/kg PO QD",8.45%
same,Rat body weight,"[3]; Day 9, 25 mg/kg PO QD",207.81 g
same,Weight change rate (%),"[3]; Day 9, 25 mg/kg PO QD",9.26%
same,Rat body weight,"[3]; Day 9, 50 mg/kg PO QD",206.07 g
same,Weight change rate (%),"[3]; Day 9, 50 mg/kg PO QD",8.83%
same,Rat body weight,"[3]; Day 9, 100 mg/kg PO QD",214.36 g
same,Weight change rate (%),"[3]; Day 9, 100 mg/kg PO QD",12.84%
same,Rat body weight,"[3]; Day 13, 25 mg/kg PO QD",214.28 g
same,Weight change rate (%),"[3]; Day 13, 25 mg/kg PO QD",12.23%
same,Rat body weight,"[3]; Day 13, 50 mg/kg PO QD",216.20 g
same,Weight change rate (%),"[3]; Day 13, 50 mg/kg PO QD",14.24%
same,Rat body weight,"[3]; Day 13, 100 mg/kg PO QD",223.98 g
same,Weight change rate (%),"[3]; Day 13, 100 mg/kg PO QD",17.96%
same,Rat body weight,"[3]; Day 16, 25 mg/kg PO QD",219.00 g
same,Weight change rate (%),"[3]; Day 16, 25 mg/kg PO QD",12.36%
same,Rat body weight,"[3]; Day 16, 50 mg/kg PO QD",218.42 g
same,Weight change rate (%),"[3]; Day 16, 50 mg/kg PO QD",15.41%
same,Rat body weight,"[3]; Day 16, 100 mg/kg PO QD",227.40 g
same,Weight change rate (%),"[3]; Day 16, 100 mg/kg PO QD",19.77%
same,Rat body weight,"[3]; Day −1, 25 mg/kg PO QD",188.31 g
same,Weight change rate (%),"[3]; Day −1, 25 mg/kg PO QD",0.00%
same,Rat body weight,"[3]; Day −1, 50 mg/kg PO QD",189.34 g
same,Weight change rate (%),"[3]; Day −1, 50 mg/kg PO QD",0.00%
same,Rat body weight,"[3]; Day −1, 100 mg/kg PO QD",189.92 g
same,Weight change rate (%),"[3]; Day −1, 100 mg/kg PO QD",0.00%
same,effect on collagen-induced arthritis in mice,[4],"had some known effects on collagen-induced arthritis in mice, but not as obvious as the positive control drug"
